Earlier results, collected in paper PMC9660540 (Clinical Cancer Research, 2022).
Read-outs that look alike come from different tables or passages of the source.

Legend:
mCRPC = details: cited from earlier work; for OS benefit: phase III clinical trials, ref [35–37]
[1] = cited from earlier work
advanced NSCLC = details: in combination with carboplatin, pemetrexed, and pembrolizumab; of 6 evaluable patients; ref [47]; cited from earlier work
[2] = phase I trials; ref [45]; cited from earlier work
[3] = tested on: renal cell carcinoma (RCC); details: pretreated patients with RCC; ref [43]; cited from earlier work

atezolizumab: anti–PD-L1 antibody
OS benefit (mCRPC; mCRPC): failed to demonstrate an OS benefit

Nc1nc(-n2cccn2)nc(-n2cccn2)c1Br [NIR178]
Grade ≥3 treatment-related AEs ([1]; monotherapy, at the highest doses (480 and 640 mg), ref [42, 44]): nausea, increased AST, ALT, and lipase levels, and pneumonitis

Cc1c(C#N)cccc1-c1cc(-c2cn(Cc3cccc(C(C)(C)O)n3)nn2)nc(N)n1 [AB928]
Patients with a PR (advanced NSCLC): 3 patients

CO[C@H]1C(=O)[C@]2(C)[C@@H](OC)C[C@H]3OC[C@@]3(OC(C)=O)[C@H]2[C@H](OC(=O)c2ccccc2)[C@]2(O)C[C@H](OC(=O)[C@H](O)[C@@H](NC(=O)OC(C)(C)C)c3ccccc3)C(C)=C1C2(C)C [cabazitaxel]
Median PFS (mCRPC; later-line mCRPC, ref [48]): 3.9 months

durvalumab: human immunoglobulin G1 monoclonal antibody that inhibits binding of PD-L1 to PD-1 and CD80
Grade 3−4 treatment-related events ([1]; durvalumab monotherapy, PACIFIC study, ref [33]): 11.8%

C[S@+]([O-])CCOc1cc(N2CCN(CCn3c(=O)sc4c3nc(N)n3nc(-c5ccco5)nc43)CC2)c(F)cc1F [EOS100850]
Best response of SD [2]: 6 patients | Grade ≥3 treatment-related AEs ([1]; up to doses of 160 mg twice daily, ref [42, 45]): no grade ≥3 treatment-related AEs

ipilimumab: anti–CTLA-4 antibody
OS benefit (mCRPC; mCRPC): failed to demonstrate an OS benefit

Cc1ccc(-c2nc(N)nc3c2nnn3Cc2cccc(CO[C@H]3CCOC3)n2)o1 [ciforadenant]
Most common treatment-related AEs ([1]; ref [42, 43]): fatigue, nausea, and pruritus | Patients with tumor regression (mCRPC; mCRPC, with or without atezolizumab, of 33 patients, ref [46]): 5 patients | Patients with a PR [3]: 3%
